Laboratory results as given in patent US20200316038A1, “METHODS AND COMPOSITIONS FOR TREATING UREA CYCLE DISORDERS, IN PARTICULAR OTC DEFICIENCY” (CAMP4 THERAPEUTICS CORPORATION, priority 2017, published 2020).
Structures can show the parent of a compound that is named as a salt. Where two headings read alike, the source gives them in different places.

Legend:
OTC [1] = test: OTC expression modulated by compounds (OTC/Geo Mean of HKs, DMSO = 1); assay type: cell-based, human; settings: OTC expression
Method: Analysis of the fold changes in expression as measured by qRT-PCR were performed using the technique below. The control was DMSO, and the treatment was the selected compound (CPD). The internal control was GAPDH or B-Actin, and the gene of interest is the target. First, the averages of the 4 conditions were calculated for normalization: DMSO:GAPDH, DMSO:Target, CPD: GAPDH, and CPD:Target. Next, the ΔCT of both control and treatment were calculated to normalize to internal control (GAPDH) using (DMSO:Target)−(DMSO:GAPDH)=ΔCT control and (CPD:Target)−(CPD: GAPDH)=ΔCT experimental. Then, the ΔΔCT was calculated by ΔCT experimental−ΔCT control.

ARG1 = test: RNA-seq, ARG1 expression in compound-treated primary human hepatocytes; assay type: cell-based; settings: RNA-seq, primary human hepatocytes, compounds that significantly increase ARG1 expression
[2] = test system: multiple urea cycle-related genes; test: RNA-seq, compounds that modulate multiple urea cycle-related genes; assay type: cell-based; settings: primary human hepatocytes; for Up-regulated Genes: urea cycle-related genes significantly increased by the compound
OTC [3] = test: RNA-seq, OTC expression in compound-treated primary human hepatocytes; assay type: cell-based
CPS1 = test: RNA-seq, CPS1 expression in compound-treated primary human hepatocytes; assay type: cell-based
[4] = compound at 10 uM final concentration
[5] = RNA-seq, primary human hepatocytes, compounds that significantly increase NAGS expression

With `Cn1c(=O)c(Oc2ccc(F)cc2F)cc2cnc(NC(CCO)CCO)nc21` [Pamapimod] the “Max Value (OTC/Geo Mean of HKs; DMSO = 1)” value (OTC [1]; [4]) was 1.73.

With `Cc1ccc(Nc2nccc(N(C)c3ccc4c(C)n(C)nc4c3)n2)cc1S(N)(=O)=O` [Pazopanib] the “Max Value (OTC/Geo Mean of HKs; DMSO = 1)” value (OTC [1]; [4]) was 1.48.

With `[H]/N=C(/N)N/C(=N/[H])NCCc1ccccc1` [Phenformin] the “NAGS expression, Fold change (Log 2) vs untreated” value (NAGS) was 1.38 Log 2 and the “ARG1 expression, Fold change (Log 2) vs untreated” value (ARG1) was 1.14 Log 2.

For `CCCC(=O)O[C@@H]1[C@@H](C)[C@@]2(O)[C@@H](C=C(CO)C[C@]3(O)C(=O)C(C)=C[C@@H]23)[C@@H]2C(C)(C)[C@]12OC(=O)CCC` [Phorbol 12,13-dibutyrate], the “NAGS expression, Fold change (Log 2) vs untreated” value (NAGS; [5]) was 0.62 Log 2.

With `NS(=O)(=O)C#Cc1ccccc1` [Pifithrin-u] the “ARG1 expression, Fold change (Log 2) vs untreated” value (ARG1) was 1.87 Log 2.

With `NS(=O)(=O)C#Cc1ccccc1` [Pifithrin-μ] the “number of urea cycle genes whose expression was significantly up-regulated” value [2] was “three”, the “Up-regulated Genes” value [2] was “OTC, NAGS, ARG1” and the “NAGS expression, Fold change (Log 2) vs untreated” value (NAGS; [5]) was 1.18 Log 2. The “Fold change (Log 2) vs untreated” value (OTC [3]) was 0.79 Log 2.

For `N[C@@]1(C(=O)O)CS(=O)(=O)[C@H]2[C@H](C(=O)O)[C@H]21` [Pomaglumetad], the “Max Value (OTC/Geo Mean of HKs; DMSO = 1)” value (OTC [1]; [4]) was 1.49.

`COc1cc(Nc2ncc(F)c(Nc3ccc4c(n3)N(COP(=O)(O)O)C(=O)C(C)(C)O4)n2)cc(OC)c1OC` [R788 (fostamatinib disodium hexahydrate), fostamatinib disodium hexahydrate] was tested, and the “number of urea cycle genes whose expression was significantly up-regulated” value [2] was “three” and the “Up-regulated Genes” value [2] was “CPS1, ARG1, SLC25A15”.

`Cl.Cn1c(=O)c(Oc2ccc(F)cc2F)cc2cnc(NC3CCOCC3)nc21` [R1487 Hydrochloride] was tested, and the “Max Value (OTC/Geo Mean of HKs; DMSO = 1)” value (OTC [1]; [4]) was 1.64.

In the case of `CNC(=O)c1cc(Oc2ccc(NC(=O)Nc3ccc(Cl)c(C(F)(F)F)c3)c(F)c2)ccn1` [Regorafenib], the “Max Value (OTC/Geo Mean of HKs; DMSO = 1)” value (OTC [1]; [4]) is reported as 1.54 and the “Max Value (OTC/Geo Mean of HKs; DMSO = 1)” value (OTC [1]; compound at 10 uM final concentration, listed as Regorafenib (BAY 73-4506)) is reported as 2.07.

With `C=CCNc1c(O)cc2c(O)c1C[C@@H](C)C[C@H](OC)[C@H](O)[C@@H](C)/C=C(\C)[C@H](OC(N)=O)[C@@H](OC)/C=C\C=C(/C)C(=O)N2` [Retaspimycin Hydrochloride] the “Max Value (OTC/Geo Mean of HKs; DMSO = 1)” value (OTC [1]; compound tested at 1 uM) was 1.48.

With `COc1cc2c(cc1OC)CN(C(=O)/C=C/c1c(-c3ccccc3)n(C)c3ncccc13)CC2` [SIS3] the “Max Value (OTC/Geo Mean of HKs; DMSO = 1)” value (OTC [1]; [4]) was 1.46 and the “NAGS expression, Fold change (Log 2) vs untreated” value (NAGS) was 0.64 Log 2.

In the case of `O=C(NCCCn1ccnc1)c1cc(-c2ccco2)on1` [SKL2001], the “NAGS expression, Fold change (Log 2) vs untreated” value (NAGS) is reported as 0.95 Log 2.

In the case of `CC(C)[C@H](O)C(=O)N[C@@H](C)C(=O)N[C@@H]1C(=O)N(C)CCc2ccccc21` [Semagacestat], the “Max Value (OTC/Geo Mean of HKs; DMSO = 1)” value (OTC [1]; [4]) is reported as 1.5.

`Cc1cc(C)c(/C=C2\C(=O)Nc3ccccc32)[nH]1` [Semaxanib] was tested, and the “NAGS expression, Fold change (Log 2) vs untreated” value (NAGS; [5]) was 2 Log 2.

For `CCN(CC)CCNC(=O)c1c(C)[nH]c(/C=C2\C(=O)Nc3ccc(F)cc32)c1C` [Sunitinib], the “Max Value (OTC/Geo Mean of HKs; DMSO = 1)” value (OTC [1]; [4]) was 2.62.

With `CCS(=O)(=O)c1cccc(-c2cc(C(=O)NC3CCN(C)CC3)c(C)c3[nH]c4ncc(C)cc4c23)c1` [TAK-901] the “Max Value (OTC/Geo Mean of HKs; DMSO = 1)” value (OTC [1]; [4]) was 2.9.

With `CN1CCN(CCCN2c3ccccc3Sc3ccc(C(F)(F)F)cc32)CC1` [TFP, Trifluoperazine] the “NAGS expression, Fold change (Log 2) vs untreated” value (NAGS; [5]) was 0.58 Log 2.

For `COc1cc2nccc(Oc3ccc(NC(=O)Nc4cc(C)on4)c(Cl)c3)c2cc1OC` [Tivozanib], the “Max Value (OTC/Geo Mean of HKs; DMSO = 1)” value (OTC [1]; [4]) was 1.57.

For `C[C@@H]1CCN(C(=O)CC#N)C[C@@H]1N(C)c1ncnc2[nH]ccc12` [Tofacitinib citrate], the “Max Value (OTC/Geo Mean of HKs; DMSO = 1)” value (OTC [1]; [4]) was 1.6.

With `CC(C)c1cc(CNc2nc(Nc3cc(C4CC4)[nH]n3)cc(N3CCN(C)CC3)n2)on1` [XL228] the “Max Value (OTC/Geo Mean of HKs; DMSO = 1)” value (OTC [1]; [4]) was 2.92.

In the case of `COCCn1c2c([n+](Cc3cnccn3)c1C)C(=O)c1ccccc1C2=O` [YM155 (Sepantronium Bromide), Sepantronium Bromide], the “Max Value (OTC/Geo Mean of HKs; DMSO = 1)” value (OTC [1]; [4]) is reported as 3.16.

For `C[C@]12C=CC(=O)C=C1CC[C@@H]1[C@@H]2C(=O)C[C@@]2(C)[C@H]1CC[C@]2(O)C(=O)CO` [prednisone], the “Fold change (Log 2) vs untreated” value (CPS1) was 2.17 Log 2, the “number of urea cycle genes whose expression was significantly up-regulated” value [2] was “three” and the “Up-regulated Genes” value [2] was “CPS1, NAGS, ARG1”. For the same molecule, the “NAGS expression, Fold change (Log 2) vs untreated” value (NAGS; [5]) was 1 Log 2 and the “ARG1 expression, Fold change (Log 2) vs untreated” value (ARG1) was 1.59 Log 2.

With “EGF: Epidermal Growth Factor; Pan-ErbB activator” the “Fold change (Log 2) vs untreated” value (CPS1) was 1.93 Log 2, the “number of urea cycle genes whose expression was significantly up-regulated” value [2] was “three” and the “Up-regulated Genes” value [2] was “CPS1, OTC, ARG1”. For the same molecule, the “Fold change (Log 2) vs untreated” value (OTC [3]) was 0.64 Log 2 and the “ARG1 expression, Fold change (Log 2) vs untreated” value (ARG1) was 1.46 Log 2.

B1: GDF10 (BMP3b): member of the BMP family and the TGF-B superfamily (protein, UniProt P55107 369-478, looked up)
Growth/differentiation factor …: QWDEPRVCSRRYLKVDFADIGWNEWIISPKSFDAYYCAGACEFPMPKIVRPSNHATIQSIVRAVGIIPGIPEPCCVPDKMNSLGVLFLDENRNVVLKVYPNMSVDTCACR
With B1 the “Fold change (Log 2) vs untreated” value (CPS1) was 1.66 Log 2 and the “ARG1 expression, Fold change (Log 2) vs untreated” value (ARG1) was 0.97 Log 2.
